Data from paper PMC7714071, “Interaction of amyloid beta with humanin and acetylcholinesterase is modulated by ATP” (FEBS Open Bio, 2020).

Tested on: AChE
Assay: ELISA, binding of biotinylated-Aβ42 to immobilised AChE
Parameters: species or system human
From the text: Most of the material used was purchased as we previously reported. Nitrocellulose membranes, PBS, ATP, recombinant human AChE (C1682, UniProt accession ID: C9JD78), streptavidin‐conjugated horseradish peroxidase (HRP) conjugate, Ponceau S solution, PMSF, and HS sodium salt from bovine kidney were purchased from Sigma‐Aldrich (St. Louis, MO, USA). Mouse IgG isotype control (mIgG), ultra 3,3′,5,5′‐tetramethylbenzidine (TMB)‐ELISA substrate solution, Halt Protease and Phosphatase Inhibitor Cocktail, HN polyclonal antibody (rabbit, PA1‐41610), and Nunc MaxiSorpTM 96‐well flat bottom plates were from Thermo Fisher (Waltham, MA, USA). […]
ELISAs were carried out as we previously reported. […] TBST was then used to wash the wells 4× before proceeding in one of two ways: (a) biotinylated samples were analyzed by adding 100 µL streptavidin–HRP conjugate in TBST (1 : 2500 dilution) to the samples followed by incubation for 3 h at RT on a shaker, or (b) samples without biotin were analyzed by adding 100 µL TBST containing the primary antibody as per the manufacturer's recommendation, incubating for 3 h at RT on a shaker, followed by washing the wells 4× with TBST. […] The reaction was stopped with 100 µL 2 M H2SO4 after incubating at RT for 0.5–15 min, resulting in a yellow color change, measured by absorbance at 450 nm. […] Statistical analysis was determined by the […]

Compound | effect of ATP on affinity of AChE to Aβ42 (200 μM ATP, 30 min preincubation RT, pH 7.5, 10 mM MgCl2, three experiments in triplicate, Fig. 3B) | effect of HS on binding of Aβ42 to AChE (AChE 10 nM on wells, biotinylated-Aβ 1 μM, increasing HS, three independent assays, Fig. 2C)
Nc1ncnc2c1ncn2[C@@H]1O[C@H](COP(=O)(O)OP(=O)(O)OP(=O)(O)O)[C@@H](O)[C@H]1O [ATP, Adenosine triphosphate] | reduced the affinity | 
heparan sulfate [HS] |  | No effects
